Like-named read-outs stand apart in the source and are kept apart here.
Columns and labels:
[1] = biological target: VIM-1 (Pseudomonas aeruginosa (strain ATCC 15692 / DSM 22644 / CIP 104116 / JCM 14847 / LMG 12228 / 1C / PRS 101 / PAO1), UniProt A0A0F7KYQ8); assay: biochemical; settings: CCF2-FA substrate, 2 hours at 25° C
Method in brief: (§1)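 IC50 values derive from 4-parameter fits of percent inhibition against inhibitor concentration on semi-log axes. Activity was monitored by fluorescence with the CCF2-FA substrate after a 2-hour, 25° C incubation of compound, enzyme and substrate.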

[2] = biological target: IMP-1 (Serratia marcescens, UniProt P52699); assay: biochemical; type: biochemical
IMP-1, sequence (P52699 whole entry, looked up, species assumed): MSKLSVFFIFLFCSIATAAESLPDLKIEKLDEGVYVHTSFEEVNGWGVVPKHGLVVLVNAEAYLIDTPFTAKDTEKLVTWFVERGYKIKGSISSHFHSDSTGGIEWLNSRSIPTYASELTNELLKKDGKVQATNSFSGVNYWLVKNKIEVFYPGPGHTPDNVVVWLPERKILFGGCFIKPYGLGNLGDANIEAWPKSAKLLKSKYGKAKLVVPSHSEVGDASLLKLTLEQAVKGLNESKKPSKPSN
Method in brief: as §1

[3] = biological target: NDM-1 (Klebsiella pneumoniae, UniProt C7C422); assay: biochemical; type: biochemical; settings: CCF2-FA substrate, 2 hours at 25° C; read-out: NDM-1 IC50
NDM-1, sequence (C7C422 whole entry, looked up, species assumed): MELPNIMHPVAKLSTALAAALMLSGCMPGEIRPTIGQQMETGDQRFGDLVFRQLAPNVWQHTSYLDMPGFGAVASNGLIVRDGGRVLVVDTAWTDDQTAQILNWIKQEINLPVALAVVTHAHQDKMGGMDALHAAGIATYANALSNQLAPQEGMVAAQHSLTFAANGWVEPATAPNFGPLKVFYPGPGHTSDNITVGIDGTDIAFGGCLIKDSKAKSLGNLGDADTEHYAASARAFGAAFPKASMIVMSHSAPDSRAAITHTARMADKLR
Method in brief: as §1

[4] = test system: P. aeruginosa expressing IMP-1, efflux− (MB9799); assay: Efflux: concentration of MBL inhibitor which restores susceptibility to imipenem; type: cell-based, Pseudomonas aeruginosa; settings: imipenem at 2 μg/mL, in the presence of a class A, C, D serine β-lactamase inhibitor closely related to relebactam
From the text: (§2) The strain background is Pseudomonas aeruginosa PAO1.

[5] = test system: Escherichia coli expressing NDM-1 (CLB30005, CLB30016); type: cell-based; settings: NDM-1 (CLB30016), with imipenem 1 μg/ml, 95% inhibition of bacterial growth
Method in brief: (§3)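 Restoration of imipenem susceptibility (1 μg/ml imipenem) was judged by absorbance after 22–24 h at 35° C. Test compound was added to bacteria suspended 1:100 in 1.1× CAMHB from overnight blood-agar cultures.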

[6] = test system: Klebsiella pneumoniae expressing VIM-1 (IHMA599644); type: cell-based; settings: VIM-1 (IHMA599644), with imipenem 1 μg/ml, 95% inhibition of bacterial growth
Method in brief: as §3

[7] = test system: Serratia marcescens expressing IMP-1 (CL5741); type: cell-based; settings: IMP-1 (CL5741), with imipenem 1 μg/ml, 95% inhibition of bacterial growth
Method in brief: as §3

[8] = test system: P. aeruginosa expressing IMP-1, efflux+ (MB9798); type: cell-based, Pseudomonas aeruginosa; settings: for P. aeruginosa expressing IMP-1, efflux+ (MB9798) MITC95: imipenem at 2 μg/mL, in the presence of a class A, C, D serine β-lactamase inhibitor closely related to relebactam; for Efflux ratio: ratio MITC95 PA_9798/MITC95 PA_9799
From the text: as §2

[9] = CCF2-FA substrate, 2 hours at 25° C, read-out: IMP-1 IC50

Structure (SMILES)	IC50 [1] [nM]	IC50 [2, 9] [nM]	IC50 [3] [nM]	P. aeruginosa expressing IMP-1, efflux− (MB9799) MITC95 [4] [µM]	Escherichia coli MITC95 [5] [µM]	Klebsiella pneumoniae MITC95 [6] [µM]	Serratia marcescens MITC95 [7] [µM]	P. aeruginosa expressing IMP-1, efflux+ (MB9798) MITC95 [8] [µM]	Efflux ratio [8]	IC50 [2] [nM]
Nc1ncc(-c2ccc(S(=O)(=O)C3CNC3)c(S(N)(=O)=O)c2-c2nn[nH]n2)c2cccnc12 [Example 248, 3-(8-Amino-1,7-naphthyridin-5-yl)-6-(azetidin-3-ylsulfonyl)-2-(2H-tetrazol-5-yl)benzenesulfonamide]	0.556	2.09	0.566	1.563	3.125	3.125	1.563	6.25	4.00	–
Nc1nc2c(-c3ccc(S(=O)(=O)c4cccc(C(F)(F)F)c4)c(S(N)(=O)=O)c3-c3nn[nH]n3)cccc2s1 [Example 250, 3-(2-Aminobenzo[d]thiazol-4-yl)-2-(2H-tetrazol-5-yl)-6-((3-(trifluoromethyl)phenyl)sulfonyl)benzenesulfonamide]	0.681	0.82	0.245	3.125	6.25	100	6.25	200	64.00	–
Nc1nc2c(-c3ccc(S(=O)(=O)C4CNC4)c(S(N)(=O)=O)c3-c3nn[nH]n3)ccc(F)c2[nH]1 [Example 251, 3-(2-Amino-7-fluoro-1H-benzo[d]imidazol-4-yl)-6-(azetidin-3-ylsulfonyl)-2-(2H-tetrazol-5-yl)benzenesulfonamide]	0.251	0.748	0.0727	0.7813	0.3906	1.563	1.563	1.563	2.00	–
COC(=O)c1nc2c(-c3ccc(S(=O)(=O)C4CNC4)c(S(N)(=O)=O)c3-c3nn[nH]n3)cccc2[nH]1 [Example 252, Methyl 4-(4-(azetidin-3-ylsulfonyl)-3-sulfamoyl-2-(2H-tetrazol-5-yl)phenyl)-1H-benzo[d]imidazole-2-carboxylate]	0.209	0.423	0.0464	3.125	1.563	6.25	3.125	3.125	1.00	–
NS(=O)(=O)c1c(S(=O)(=O)C2CNC2)ccc(-c2cccc3[nH]c(C(=O)O)nc23)c1-c1nn[nH]n1 [Example 253, 4-(4-(Azetidin-3-ylsulfonyl)-3-sulfamoyl-2-(2H-tetrazol-5-yl)phenyl)-1H-benzo[d]imidazole-2-carboxylic Acid]	0.294	0.664	0.173	1.563	1.563	3.125	1.563	1.563	1.00	–
NC(=O)c1nc2c(-c3ccc(S(=O)(=O)C4CNC4)c(S(N)(=O)=O)c3-c3nn[nH]n3)cccc2[nH]1 [Example 254, 4-(4-(Azetidin-3-ylsulfonyl)-3-sulfamoyl-2-(2H-tetrazol-5-yl)phenyl)-1H-benzo[d]imidazole-2-carboxamide]	0.218	0.748	0.0825	1.563	1.563	6.25	3.125	3.125	2.00	–
CNC(=O)c1nc2c(-c3ccc(S(=O)(=O)C4CNC4)c(S(N)(=O)=O)c3-c3nn[nH]n3)cccc2[nH]1 [Example 255, 4-(4-(Azetidin-3-ylsulfonyl)-3-sulfamoyl-2-(2H-tetrazol-5-yl)phenyl)-N-methyl-1H-benzo[d]imidazole-2-carboxamide]	0.419	1.66	0.151	3.125	6.25	12.5	6.25	12.5	4.00	–
COC(=O)CNC(=O)c1nc2c(-c3ccc(S(=O)(=O)C4CNC4)c(S(N)(=O)=O)c3-c3nn[nH]n3)cccc2[nH]1 [Example 256, Methyl (4-(4-(azetidin-3-ylsulfonyl)-3-sulfamoyl-2-(2H-tetrazol-5-yl)phenyl)-1H-benzo[d]imidazole-2-carbonyl)glycinate]	0.35	0.999	0.108	6.25	6.25	12.5	6.25	6.25	1.00	–
NS(=O)(=O)c1c(S(=O)(=O)C2CNC2)ccc(-c2cccc3[nH]c(C(=O)NCC(=O)O)nc23)c1-c1nn[nH]n1 [Example 257, (4-(4-(azetidin-3-yl sulfonyl)-3-sulfamoyl-2-(2H-tetrazol-5-yl)phenyl)-1H-benzo[d]imidazole-2-carbonyl)glycine]	0.428	1.2	0.123	12.5	25	50	25	25	2.00	–
Nc1nc2c(-c3ccc(S(=O)(=O)CCN4CCOCC4)c(S(N)(=O)=O)c3-c3nn[nH]n3)cccc2s1 [Example 258, 3-(2-Aminobenzo[d]thiazol-4-yl)-6-((2-morpholinoethyl)sulfonyl)-2-(2H-tetrazol-5-yl)benzenesulfonamide]	0.454	–	0.228	6.25	25	25	12.5	12.5	2.00	0.469
Nc1nc2c(-c3ccc(S(=O)(=O)CCN4CCOCC4=O)c(S(N)(=O)=O)c3-c3nn[nH]n3)cccc2s1 [Example 259, 3-(2-aminobenzo[d]thiazol-4-yl)-6-((2-(3-oxomorpholino)ethyl)sulfonyl)-2-(2H-tetrazol-5-yl)benzenesulfonamide]	0.245	0.349	0.167	6.25	25	25	12.5	12.5	2.00	–
Nc1nc2cc(C(F)(F)F)cc(-c3ccc(S(=O)(=O)C4CNC4)c(S(N)(=O)=O)c3-c3nnn[nH]3)c2[nH]1 [Example 260, 3-(2-amino-5-(trifluoromethyl)-1H-benzo[d]imidazol-7-yl)-6-(azetidin-3-ylsulfonyl)-2-(1H-tetrazol-5-yl)benzenesulfonamide]	0.813	1.99	0.598	6.25	6.25	12.5	6.25	6.25	1.00	–
N#Cc1cc(-c2ccc(S(=O)(=O)C3CNC3)c(S(N)(=O)=O)c2-c2nnn[nH]2)c2[nH]c(N)nc2c1 [Example 261, 3-(2-amino-5-cyano-1H-benzo[d]imidazol-7-yl)-6-(azetidin-3-ylsulfonyl)-2-(1H-tetrazol-5-yl) benzenesulfonamide]	0.734	1.15	0.4	6.25	6.25	12.5	6.25	6.25	1.00	–

Source: US10227331B2 (priority 2015, dated 2019)
